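Growth conditions: 96-well plates. Treatment: test compound, 48 hours, 5 concentrations. Analysis: linear interpolation between bracketing concentrations; unreached endpoints set to highest concentration. Here, GI50 denotes the concentration required for 50% inhibition of growth.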 Calls of active or inactive are those of the source. Rule as the data show it: active = GI50 up to about 1.1 µM and inactive = higher.
Assays:
Assay in all cases: NCI-60 cell line screen, 48 h
[1] = system: CAKI-1
[2] = system: CCRF-CEM
[3] = system: EKVX
[4] = system: HL-60
[5] = system: HOP-92
[6] = system: LOX IMVI
[7] = system: M14
[8] = system: Malme-3M
[9] = system: NCI-H23
[10] = system: OVCAR-4
[11] = system: SF-295
[12] = system: SF-539
[13] = system: TK-10
[14] = system: U-251
[15] = system: UACC-62
[16] = system: UO-31
[17] = system: SNB-75
[18] = system: SR

Measured: GI50

CCCCN(CCCC)C(=O)C(=O)C(C(=O)c1ccc(OC)cc1)c1ccc(OC)cc1 (centres undefined)
inactive: [1] > 100 µM | [2] > 100 µM | [3] > 100 µM | [4] > 100 µM | [5] 27.4 µM | [6] > 100 µM | [7] 92.3 µM | [8] > 100 µM | [9] > 100 µM | [10] > 100 µM | [11] > 100 µM | [12] > 100 µM | [13] > 100 µM | [14] > 100 µM | [15] 56.4 µM | [16] > 100 µM

CN(C(=O)c1ccco1)C(=S)N1CCN(c2ccccn2)CC1
inactive: [1] > 100 µM | [2] > 100 µM | [4] > 100 µM | [5] > 100 µM | [6] > 100 µM | [7] > 100 µM | [8] > 100 µM | [9] > 100 µM | [10] > 100 µM | [11] > 100 µM | [12] > 100 µM | [17] > 100 µM | [13] > 100 µM | [14] > 100 µM | [15] > 100 µM | [16] > 100 µM

NC(=O)c1ncn(Cc2ccccc2)c1CNC(N)=S
inactive: [2] > 100 µM | [3] > 100 µM | [4] > 100 µM | [6] > 100 µM | [7] > 100 µM | [9] > 100 µM | [10] > 100 µM | [11] > 100 µM | [12] > 100 µM | [17] 91.4 µM | [18] > 100 µM | [13] > 100 µM | [14] > 100 µM | [15] > 100 µM | [16] > 100 µM

C=CCN1C(=O)NC(=O)/C(=C/c2c3ccccc3cc3ccccc23)C1=O
inactive: [1] 19.5 µM | [2] 26.3 µM | [3] 25.5 µM | [5] 20.4 µM | [6] 27.6 µM | [7] 16.2 µM | [8] 18.6 µM | [9] > 10 µM | [10] 22.2 µM | [11] 17.4 µM | [12] 16.7 µM | [17] 21.3 µM | [18] 23.9 µM | [13] 20 µM | [14] 16.7 µM | [15] 18 µM | [16] 20.6 µM

O=C(CCC(=O)Nc1ccc(Cl)c(Cl)c1)CC(=O)c1ccc2ccccc2c1
inactive: [1] 83 µM | [2] > 100 µM | [3] > 100 µM | [4] > 100 µM | [5] > 100 µM | [6] > 100 µM | [7] > 100 µM | [8] > 100 µM | [9] > 100 µM | [10] > 100 µM | [11] > 100 µM | [12] > 100 µM | [17] 26.3 µM | [13] > 100 µM | [14] > 100 µM | [15] 17.2 µM | [16] > 100 µM

C/C(=N\NC(=O)C[N+](C)(C)C)c1sc(-c2cccnc2)nc1C
inactive: [2] > 100 µM | [3] > 100 µM | [4] > 100 µM | [5] 24.9 µM | [6] > 100 µM | [7] > 100 µM | [8] > 100 µM | [9] > 100 µM | [11] > 100 µM | [12] > 100 µM | [17] > 100 µM | [13] > 100 µM | [14] > 100 µM | [15] > 100 µM | [16] 41.2 µM

COc1ccc(C(c2ccccc2)(c2ccc(OC)cc2)N2C(=O)NC3C(CCCCC(=O)NCCCCCCOP(OCCC#N)N(C(C)C)C(C)C)SCC32)cc1 (centres undefined)
inactive: [2] 9.12 µM | [3] 21.5 µM | [4] 12.1 µM | [5] 19.5 µM | [6] 11.8 µM | [7] 18.4 µM | [8] 17.8 µM | [9] 17 µM | [10] 17.9 µM | [11] 17.1 µM | [12] 14.5 µM | [18] 8.07 µM | [13] 18 µM | [14] 15 µM | [15] 10.9 µM | [16] 14.3 µM

CC1=C(Cl)C=CP(=O)(Oc2ccccc2)C1 (centres undefined)
inactive: [1] > 100 µM | [2] > 10 µM | [3] > 100 µM | [4] > 10 µM | [5] > 100 µM | [6] 33 µM | [7] 19.1 µM | [8] 44.5 µM | [9] 45.7 µM | [10] > 100 µM | [11] > 100 µM | [14] > 100 µM | [15] 43.2 µM | [16] 38.3 µM

CC(C)(C)C(=O)OCC1CCC(n2cnc3c(=O)[nH]c(N)nc32)O1 (centres undefined)
inactive: [1] > 100 µM | [2] > 100 µM | [3] > 100 µM | [5] > 100 µM | [6] > 100 µM | [7] > 100 µM | [8] > 100 µM | [9] > 100 µM | [10] > 100 µM | [11] > 100 µM | [12] > 100 µM | [17] 40 µM | [13] > 100 µM | [14] > 100 µM | [15] > 100 µM | [16] > 100 µM

O=C(CC(=O)N1N=C(c2ccccc2)C(/N=N/c2ccccc2Cl)C1=O)Nc1ccccc1Cl (centres undefined)
inactive: [1] 30.8 µM | [3] 33.1 µM | [4] 13 µM | [6] 31.3 µM | [7] 37.9 µM | [9] 39.8 µM | [10] 20.7 µM | [11] 27.4 µM | [12] 29.9 µM | [17] 21.1 µM | [18] 19.3 µM | [13] 15.4 µM | [14] 32.1 µM | [15] 37.7 µM | [16] 57.9 µM

C[C@]12CCc3nonc3C1CC[C@@H]1C2CC[C@]2(C)C(=O)CCC12 (some centres undefined)
inactive: [1] 14.8 µM | [2] 24.1 µM | [3] 17.1 µM | [4] 15.5 µM | [5] 20 µM | [6] 21.5 µM | [7] 64.9 µM | [8] 24.9 µM | [9] 30.8 µM | [10] > 100 µM | [11] 26.3 µM | [12] 20.9 µM | [17] 28.8 µM | [13] > 10 µM | [14] 48.6 µM | [15] 21.7 µM | [16] 20.6 µM

CC1=C2N3C[C@@H](n4c(=O)n(C)c(=O)n43)C23CCC1n1c(=O)n(C)c(=O)n13
inactive: [1] > 100 µM | [2] > 100 µM | [3] > 100 µM | [4] > 100 µM | [6] 52.8 µM | [7] > 100 µM | [8] > 100 µM | [9] > 100 µM | [10] > 100 µM | [11] > 100 µM | [12] > 100 µM | [17] > 100 µM | [13] > 100 µM | [15] > 100 µM | [16] > 100 µM
